Experimental data from ChEMBL document CHEMBL1127173, “EPSP synthase inhibitor deisgn III. Synthesis & evaluation of a new 5-oxamic acid analog of EPSP which incorporates a malonate ether as a 3-phosphate mimic” (Bioorg Med Chem Lett, 1993).
pIC50, pKi: −log10 of the molar value.

Target: T1, 3-phosphoshikimate 1-carboxyvinyltransferase (Escherichia coli K-12, UniProt P0A6D3)
T1 sequence (P0A6D3 whole entry): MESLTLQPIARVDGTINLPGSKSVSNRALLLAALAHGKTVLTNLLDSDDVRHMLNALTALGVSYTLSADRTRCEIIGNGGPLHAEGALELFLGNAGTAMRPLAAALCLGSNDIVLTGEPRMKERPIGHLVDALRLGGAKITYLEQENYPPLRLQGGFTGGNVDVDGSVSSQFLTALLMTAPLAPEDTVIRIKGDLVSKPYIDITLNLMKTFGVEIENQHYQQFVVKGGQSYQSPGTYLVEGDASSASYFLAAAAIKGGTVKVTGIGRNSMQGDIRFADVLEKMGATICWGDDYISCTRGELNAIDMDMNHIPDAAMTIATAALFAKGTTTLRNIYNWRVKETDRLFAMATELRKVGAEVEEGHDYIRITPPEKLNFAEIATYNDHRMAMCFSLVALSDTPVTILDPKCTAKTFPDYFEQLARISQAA
Assay: The compound was tested for the inhibition of Escherichia coli 5-enolpyruvyl-shikimate-3-phosphate synthase (EPSP).

| pKi | pIC50 | Structure (SMILES) |
| --- | --- | --- |
| 4.05 |  | N[C@@H]1CC(C(=O)O)=C[C@@H](OP(=O)(O)O)[C@H]1O |
|  | < 2.00 | O=C(O)C(=O)N[C@@H]1CC(C(=O)O)=C[C@@H](O)[C@H]1O |
| 5.28 |  | O=C(O)C(=O)N[C@@H]1CC(C(=O)O)=C[C@@H](OC(C(=O)O)C(=O)O)[C@H]1O |
| 5.82 |  | O=C(O)CO[C@@H]1CC(C(=O)O)=C[C@@H](OP(=O)(O)O)[C@H]1O |
